{
  "source": "ChEMBL document CHEMBL1201862",
  "about": "“PubChem BioAssay data set” (2004)",
  "key": {"[1]": {"assay": "HEp-2 cell cytotoxicity, dose response, cytotoxicity control for RSV inhibitor project, HTS (AID 2410)", "type": "functional", "details": "human respiratory syncytial virus"}, "[2]": {"target": "Cytochrome P450 2C19 (Homo sapiens, UniProt P33261)", "sequence (P33261 whole entry)": "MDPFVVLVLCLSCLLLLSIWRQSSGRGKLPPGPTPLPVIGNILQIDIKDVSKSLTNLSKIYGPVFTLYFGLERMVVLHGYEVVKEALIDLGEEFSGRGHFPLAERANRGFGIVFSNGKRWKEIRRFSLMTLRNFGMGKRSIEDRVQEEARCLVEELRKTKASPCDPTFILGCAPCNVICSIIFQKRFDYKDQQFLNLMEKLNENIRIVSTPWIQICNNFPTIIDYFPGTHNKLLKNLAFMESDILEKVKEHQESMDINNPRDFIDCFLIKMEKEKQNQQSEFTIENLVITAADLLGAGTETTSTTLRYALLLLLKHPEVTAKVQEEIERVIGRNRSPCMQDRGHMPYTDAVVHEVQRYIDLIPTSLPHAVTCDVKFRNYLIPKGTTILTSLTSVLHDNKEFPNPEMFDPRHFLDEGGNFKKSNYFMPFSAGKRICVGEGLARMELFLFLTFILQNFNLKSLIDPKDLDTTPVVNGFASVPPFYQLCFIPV", "assay": "Cytochrome panel assay with activity outcomes. Panel member name: p450-cyp2c19 Compounds with AC50 equal or less than 10 uM are considered active", "type": "functional", "details": "read-out: AC50"}, "[3]": {"target": "Cytochrome P450 2C9 (Homo sapiens, UniProt P11712)", "sequence (P11712 whole entry)": "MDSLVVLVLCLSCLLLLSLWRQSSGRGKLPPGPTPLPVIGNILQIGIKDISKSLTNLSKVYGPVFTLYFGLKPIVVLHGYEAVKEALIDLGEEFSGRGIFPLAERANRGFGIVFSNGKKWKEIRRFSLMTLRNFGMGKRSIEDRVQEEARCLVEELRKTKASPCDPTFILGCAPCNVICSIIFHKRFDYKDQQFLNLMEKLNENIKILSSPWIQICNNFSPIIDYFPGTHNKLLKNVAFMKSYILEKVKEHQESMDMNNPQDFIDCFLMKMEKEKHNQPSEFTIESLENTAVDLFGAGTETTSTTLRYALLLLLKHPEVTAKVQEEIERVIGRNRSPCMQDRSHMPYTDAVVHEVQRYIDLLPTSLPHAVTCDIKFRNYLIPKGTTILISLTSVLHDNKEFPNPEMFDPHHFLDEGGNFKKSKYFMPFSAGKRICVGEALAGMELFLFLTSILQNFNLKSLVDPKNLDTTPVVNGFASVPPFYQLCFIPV"}, "[4]": {"target": "Voltage-gated inwardly rectifying potassium channel KCNH2 (Homo sapiens, UniProt Q12809)", "sequence (Q12809 whole entry)": "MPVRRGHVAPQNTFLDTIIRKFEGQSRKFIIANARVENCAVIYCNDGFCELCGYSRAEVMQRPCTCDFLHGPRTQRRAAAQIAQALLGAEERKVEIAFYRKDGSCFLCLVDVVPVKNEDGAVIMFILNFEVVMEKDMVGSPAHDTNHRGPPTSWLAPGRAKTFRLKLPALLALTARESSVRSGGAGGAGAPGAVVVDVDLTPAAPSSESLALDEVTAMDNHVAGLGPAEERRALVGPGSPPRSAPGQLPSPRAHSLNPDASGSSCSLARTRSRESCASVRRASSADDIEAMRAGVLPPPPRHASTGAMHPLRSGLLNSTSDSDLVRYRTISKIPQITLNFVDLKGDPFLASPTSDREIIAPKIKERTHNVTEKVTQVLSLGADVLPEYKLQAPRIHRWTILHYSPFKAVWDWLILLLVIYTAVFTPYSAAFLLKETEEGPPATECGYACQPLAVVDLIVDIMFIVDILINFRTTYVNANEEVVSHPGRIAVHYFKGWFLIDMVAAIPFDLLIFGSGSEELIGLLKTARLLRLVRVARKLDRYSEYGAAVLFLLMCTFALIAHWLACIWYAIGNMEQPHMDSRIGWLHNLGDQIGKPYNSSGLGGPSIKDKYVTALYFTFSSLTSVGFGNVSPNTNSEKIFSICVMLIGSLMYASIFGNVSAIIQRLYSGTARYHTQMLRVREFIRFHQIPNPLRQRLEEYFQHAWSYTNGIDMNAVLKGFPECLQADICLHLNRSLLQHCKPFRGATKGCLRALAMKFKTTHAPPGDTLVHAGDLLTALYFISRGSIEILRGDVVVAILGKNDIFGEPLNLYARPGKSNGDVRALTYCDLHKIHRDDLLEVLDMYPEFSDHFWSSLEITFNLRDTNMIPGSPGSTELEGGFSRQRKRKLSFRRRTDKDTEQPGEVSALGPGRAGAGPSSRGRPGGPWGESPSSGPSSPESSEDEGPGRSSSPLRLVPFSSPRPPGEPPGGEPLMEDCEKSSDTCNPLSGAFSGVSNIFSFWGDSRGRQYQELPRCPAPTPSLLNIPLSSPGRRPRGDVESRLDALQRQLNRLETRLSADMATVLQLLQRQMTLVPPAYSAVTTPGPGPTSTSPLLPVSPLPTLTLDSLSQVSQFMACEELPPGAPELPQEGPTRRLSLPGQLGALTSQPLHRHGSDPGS", "details": "Potency"}, "[5]": {"assay": "inhibitors of intracellular T. cruzi replication, confirmation, NIH3T3 host cells, beta-gal luminescence (AID 2044);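 also: luminescent beta-galactosidase reporter signal from transgenic T. cruzi replicating inside host cells; inhibitors lower the luminescence signal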", "type": "functional, cell-based"}, "[6]": {"assay": "cytotoxicity toward NIH3T3 fibroblasts, dose response, counter-screen, cell-based, ATP luminescence, mouse fibroblasts (AID 2010);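 also: cells exposed to compound for about 90 hours before reading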", "type": "functional"}, "[7]": {"assay": "Luminescence Cell-Based Dose Retest to Confirm Inhibitors of Cancer Stem Cells. [Related pubchem assays (depositor defined):AID2717, AID2721]", "type": "functional", "details": "Homo sapiens"}, "[8]": {"assay": "cytotoxicity in HMLE control line with eGFP shRNA, dose response, counter-screen for HMLE_sh_ECad selective toxicity project, cell-based, HMLE_sh_eGFP, luminescence (AID 463074);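 also: HMLE human mammary epithelial cells expressing control shRNA against eGFP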", "type": "functional, Homo sapiens"}, "[9]": {"target": "Beta-galactosidase (Escherichia coli, UniProt Q8VNN2)", "sequence (Q8VNN2 whole entry)": "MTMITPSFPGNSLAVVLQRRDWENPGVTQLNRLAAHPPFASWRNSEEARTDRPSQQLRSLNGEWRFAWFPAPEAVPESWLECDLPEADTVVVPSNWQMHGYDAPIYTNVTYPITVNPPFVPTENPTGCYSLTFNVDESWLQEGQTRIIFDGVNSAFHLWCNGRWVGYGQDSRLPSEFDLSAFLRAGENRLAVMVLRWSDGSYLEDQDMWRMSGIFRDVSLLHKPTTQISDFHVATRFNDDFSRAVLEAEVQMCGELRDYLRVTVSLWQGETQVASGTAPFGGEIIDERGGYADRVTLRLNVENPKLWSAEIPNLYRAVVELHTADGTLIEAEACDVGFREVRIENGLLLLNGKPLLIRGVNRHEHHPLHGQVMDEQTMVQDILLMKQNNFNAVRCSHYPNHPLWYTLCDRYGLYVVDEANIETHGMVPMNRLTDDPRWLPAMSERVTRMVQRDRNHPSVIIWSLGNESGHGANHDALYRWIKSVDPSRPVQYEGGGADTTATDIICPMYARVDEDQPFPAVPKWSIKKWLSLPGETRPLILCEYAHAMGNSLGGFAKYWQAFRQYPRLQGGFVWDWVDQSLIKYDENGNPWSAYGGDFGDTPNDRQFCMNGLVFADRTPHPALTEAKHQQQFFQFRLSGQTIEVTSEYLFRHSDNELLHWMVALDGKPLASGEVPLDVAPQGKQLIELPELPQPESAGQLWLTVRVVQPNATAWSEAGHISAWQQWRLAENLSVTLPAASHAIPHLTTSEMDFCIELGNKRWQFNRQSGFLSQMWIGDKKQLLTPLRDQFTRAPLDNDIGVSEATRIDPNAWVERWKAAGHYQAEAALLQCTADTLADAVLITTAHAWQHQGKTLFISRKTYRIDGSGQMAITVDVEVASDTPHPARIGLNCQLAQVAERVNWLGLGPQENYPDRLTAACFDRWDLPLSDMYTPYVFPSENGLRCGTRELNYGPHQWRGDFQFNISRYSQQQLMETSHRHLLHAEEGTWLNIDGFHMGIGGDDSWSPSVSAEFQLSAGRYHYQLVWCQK", "assay": "PubChem AID 485352", "type": "functional"}, "[10]": {"target": "T1, Type-1 angiotensin II receptor (Homo sapiens, UniProt P30556)", "T1 sequence (P30556 whole entry)": "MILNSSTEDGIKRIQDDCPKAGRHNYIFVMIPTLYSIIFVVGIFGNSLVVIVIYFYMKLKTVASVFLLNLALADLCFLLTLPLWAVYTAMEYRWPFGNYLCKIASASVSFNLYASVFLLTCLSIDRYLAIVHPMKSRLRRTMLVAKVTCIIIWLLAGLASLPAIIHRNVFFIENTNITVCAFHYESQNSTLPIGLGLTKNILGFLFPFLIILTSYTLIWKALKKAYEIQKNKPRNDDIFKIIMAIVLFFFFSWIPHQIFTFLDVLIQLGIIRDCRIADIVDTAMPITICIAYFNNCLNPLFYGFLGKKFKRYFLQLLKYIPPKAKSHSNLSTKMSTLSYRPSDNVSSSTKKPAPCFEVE", "assay": "AT1 receptor antagonists, dose response, selectivity assay for APJ receptor antagonist project, cell-based, uHTS hits (AID 463214);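 also: antagonist potency against angiotensin II stimulated AT1 response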", "type": "functional"}, "[11]": {"assay": "NIH-3T3 fibroblast cytotoxicity, dose response, cytotoxicity control, cell-based, fluorescence, Alamar Blue, secondary assay (AID 2327);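 also: NIH-3T3 mouse fibroblasts cultured with fluconazole at 8 µg/mL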", "type": "functional"}, "[12]": {"assay": "C. albicans growth with fluconazole, confirmation, fluorescence, retest (AID 2467)", "type": "functional, cell-based"}, "[13]": {"target": "T2, Serine/threonine-protein phosphatase (Candida dubliniensis (strain CD36 / CBS 7987 / NCPF 3949 / NRRLY-17841) (Yeast), UniProt B9W6M3)", "T2 sequence (B9W6M3 whole entry)": "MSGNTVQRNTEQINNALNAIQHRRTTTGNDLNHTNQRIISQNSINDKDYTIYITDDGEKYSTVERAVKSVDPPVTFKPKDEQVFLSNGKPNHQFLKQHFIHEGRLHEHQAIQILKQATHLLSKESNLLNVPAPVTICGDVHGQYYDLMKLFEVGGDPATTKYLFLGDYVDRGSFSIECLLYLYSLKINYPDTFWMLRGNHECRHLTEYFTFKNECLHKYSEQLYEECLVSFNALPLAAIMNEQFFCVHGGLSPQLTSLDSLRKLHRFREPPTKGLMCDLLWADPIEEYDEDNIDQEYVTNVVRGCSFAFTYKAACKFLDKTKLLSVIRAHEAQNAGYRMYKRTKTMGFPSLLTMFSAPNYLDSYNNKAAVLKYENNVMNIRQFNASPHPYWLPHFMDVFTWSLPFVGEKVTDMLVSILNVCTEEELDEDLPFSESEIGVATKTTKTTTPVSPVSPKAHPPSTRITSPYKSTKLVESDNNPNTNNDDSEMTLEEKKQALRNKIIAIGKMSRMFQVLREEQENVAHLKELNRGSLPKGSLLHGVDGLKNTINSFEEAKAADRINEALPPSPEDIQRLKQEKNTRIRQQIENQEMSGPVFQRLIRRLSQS", "assay": "calcineurin pathway inhibitors in yeast reporter, dose response, S. cerevisiae, CDRE-lacZ, luminescence, secondary (AID 2388);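 also: yeast reporter cells carrying a calcineurin-responsive lacZ construct stimulated with calcium chloride; luminescent beta-galactosidase reporter signal in whole cells rather than isolated phosphatase activity; potency for inhibition where a drop in reporter signal means calcineurin blockade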", "type": "functional, cell-based"}, "[14]": {"target": "ATP-dependent molecular chaperone HSP82 (Candida albicans (strain WO-1) (Yeast), UniProt C4YTQ8)", "sequence (C4YTQ8 whole entry)": "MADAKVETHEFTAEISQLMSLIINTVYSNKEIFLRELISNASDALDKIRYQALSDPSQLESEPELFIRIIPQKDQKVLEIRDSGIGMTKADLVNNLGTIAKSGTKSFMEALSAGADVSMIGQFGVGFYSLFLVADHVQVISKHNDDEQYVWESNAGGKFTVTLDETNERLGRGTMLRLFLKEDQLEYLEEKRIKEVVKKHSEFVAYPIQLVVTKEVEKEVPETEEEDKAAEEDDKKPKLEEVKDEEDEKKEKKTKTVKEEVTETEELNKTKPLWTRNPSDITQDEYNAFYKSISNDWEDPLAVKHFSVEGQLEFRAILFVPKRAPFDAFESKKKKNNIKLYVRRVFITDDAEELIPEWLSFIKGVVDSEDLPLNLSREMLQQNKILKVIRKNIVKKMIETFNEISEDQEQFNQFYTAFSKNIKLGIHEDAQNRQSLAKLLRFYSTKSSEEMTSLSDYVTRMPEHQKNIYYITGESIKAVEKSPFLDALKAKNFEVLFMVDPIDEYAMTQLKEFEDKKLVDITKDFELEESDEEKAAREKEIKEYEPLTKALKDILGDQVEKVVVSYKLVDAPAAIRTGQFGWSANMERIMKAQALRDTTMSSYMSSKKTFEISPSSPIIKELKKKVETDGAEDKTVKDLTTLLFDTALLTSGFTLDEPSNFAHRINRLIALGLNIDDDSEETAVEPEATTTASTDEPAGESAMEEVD", "assay": "loss of DOC-induced GRE-beta-galactosidase reporter signal, dose response, Hsp90 inhibitor project, S. cerevisiae, luminescence (AID 2400);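 also: beta-galactosidase luminescence from glucocorticoid response element reporter as proxy for Hsp90 function; inhibitor potency where signal loss means Hsp90 inhibition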", "type": "functional, cell-based"}, "[15]": {"target": "Peroxisome proliferator-activated receptor gamma/Nuclear receptor coactivator 1 (Homo sapiens, UniProt P37231)", "assay": "(§1) TR-FRET dose response biochemical High Throughput Screening assay for agonists of the steroid receptor coactivator 1 (SRC-1) recruitment by the peroxisome proliferator-activated receptor gamma (PPAR gamma): non-selective agonists. [Related pubchem assays (depositor defined):AID1300, AID1808, AID504735, AID631]", "type": "protein assay"}, "[16]": {"target": "Peroxisome proliferator-activated receptor gamma/Nuclear receptor coactivator 3 (Homo sapiens, UniProt P37231)", "assay": "as §1, with “3 (SRC-3)” for “1 (SRC-1)”, “assays: 1301 (Confirmation screen.), 1048 (Primary screen.)]” for “assays (depositor defined):AID1300, AID1808, AID504735, AID631]”", "type": "functional"}, "[17]": {"target": "Peroxisome proliferator-activated receptor gamma/Nuclear receptor coactivator 2 (Homo sapiens, UniProt P37231)", "assay": "TR-FRET dose response biochemical High Throughput Screening assay for agonists of the steroid receptor coactivator 2 (SRC-2) recruitment by the peroxisome proliferator-activated receptor gamma (PPAR gamma): non-selective agonists. [Related pubchem assays: 1297, 1032 ]", "type": "functional"}, "[18]": {"target": "Dual specificity tyrosine-phosphorylation-regulated kinase 1A (Rattus norvegicus, UniProt Q63470)", "type": "biochemical, Homo sapiens"}, "[19]": {"target": "T3, Rac GTPase-activating protein 1 (Homo sapiens, UniProt Q9H0H5)", "T3 sequence (Q9H0H5 whole entry)": "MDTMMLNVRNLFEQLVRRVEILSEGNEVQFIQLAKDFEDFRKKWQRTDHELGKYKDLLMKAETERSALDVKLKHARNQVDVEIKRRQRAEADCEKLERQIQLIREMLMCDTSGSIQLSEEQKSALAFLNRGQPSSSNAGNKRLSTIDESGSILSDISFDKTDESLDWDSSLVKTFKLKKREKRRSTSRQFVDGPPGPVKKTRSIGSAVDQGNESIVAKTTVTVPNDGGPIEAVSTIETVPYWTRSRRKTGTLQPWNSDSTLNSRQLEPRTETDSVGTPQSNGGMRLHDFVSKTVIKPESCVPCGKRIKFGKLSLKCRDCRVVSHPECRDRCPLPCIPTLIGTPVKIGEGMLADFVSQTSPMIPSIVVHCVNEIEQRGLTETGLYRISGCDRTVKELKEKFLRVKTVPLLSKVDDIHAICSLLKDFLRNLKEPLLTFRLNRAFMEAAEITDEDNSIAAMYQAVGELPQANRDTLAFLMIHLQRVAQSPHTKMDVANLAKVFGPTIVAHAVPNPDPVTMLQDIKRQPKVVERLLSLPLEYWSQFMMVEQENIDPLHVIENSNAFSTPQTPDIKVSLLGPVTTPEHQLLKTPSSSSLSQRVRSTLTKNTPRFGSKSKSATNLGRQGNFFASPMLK", "assay": "MgcRacGAP GTPase-activating activity inhibitors, confirmation, biochemical, ADP Hunter fluorescence, primary and confirmatory (AID 624330)", "type": "functional"}, "[20]": {"assay": "cells", "type": "functional, cell-based"}, "[21]": {"assay": "cells", "type": "functional, cell-based", "remark": "listed apart in the source"}, "[22]": {"target": "Heat shock protein HSP 90-alpha (Homo sapiens, UniProt P07900)", "type": "functional, organism-based"}, "[23]": {"test_system": "INS1", "assay": "beta cell apoptosis inhibitors, cytokine rescue, dose response, luminescence, retest (AID 449756)", "type": "functional, cell-based", "details": "Rattus norvegicus"}, "[24]": {"assay": "M. tuberculosis H37Rv growth inhibitors, H37Rv strain (AID 1626)", "type": "functional"}},
  "note": "Activity calls are given as the source filed them.",
  "data": [
    {"smiles": "CCCOC(=O)c1c(-c2ccccc2)nc(CC)c(C(=O)SCC)c1CCC", "values": [
      {"measurement": "CC50", "setting": "[1]", "value": "35.6 µM (active)"},
      {"measurement": "AC50", "setting": "[2]", "value": "39.8 µM (inconclusive)"},
      {"measurement": "AC50", "setting": "[3]", "value": "7.94 µM (inconclusive)"},
      {"measurement": "AC50", "setting": "[4]", "value": "15.8 µM (inconclusive)"}
    ]},
    {"smiles": "O=C(C1=C[C@H](c2ccc(C(F)(F)F)cc2)C[C@H](OCc2ccc(CO)cc2)O1)N1CCN(Cc2ccc3c(c2)OCO3)CC1", "values": [
      {"measurement": "EC50", "setting": "[5]", "value": "0.265 µM (active)"},
      {"measurement": "EC50", "setting": "[6]", "value": "> 60 µM (not active)"},
      {"measurement": "AC50", "setting": "[7]", "value": "4.74 µM (active)"},
      {"measurement": "AC50", "setting": "[8]", "value": "25.8 µM (active)"}
    ]},
    {"smiles": "O=C(CNC(=O)c1ccco1)NCC(=O)OCC(=O)c1ccc(Cl)c([N+](=O)[O-])c1", "values": [
      {"measurement": "EC50", "setting": "[9]", "value": "> 40 µM (inactive)"},
      {"measurement": "IC50", "setting": "[10]", "value": "7.54 µM (active)"}
    ]},
    {"smiles": "Nc1c(S(=O)(=O)c2ccccc2)c2nc3ccccc3nc2n1CCN1CCOCC1", "values": [
      {"measurement": "EC50", "setting": "[11]", "value": "> 160 µM (inactive)"},
      {"measurement": "EC50", "setting": "[12]", "value": "0.874 µM (active)"},
      {"measurement": "EC50", "setting": "[13]", "value": "> 180 µM (inactive)"},
      {"measurement": "EC50", "setting": "[14]", "value": "> 160 µM (inactive)"}
    ]},
    {"smiles": "COc1cc(-c2nc3ccccc3s2)ccc1O", "values": [
      {"measurement": "EC50", "setting": "[15]", "value": "11.7 µM (inactive)"},
      {"measurement": "EC50", "setting": "[16]", "value": "> 79.4 µM (not active)"},
      {"measurement": "EC50", "setting": "[17]", "value": "13 µM (not active)"},
      {"measurement": "AC50", "setting": "[18]", "value": "7.81 µM (active)"},
      {"measurement": "IC50", "setting": "[19]", "value": "16.1 µM (active)"}
    ]},
    {"smiles": "CNC(=O)Nc1cc(C(F)(F)F)cc(C(F)(F)F)c1", "values": [
      {"measurement": "EC50", "setting": "[11]", "value": "> 150 µM (inactive)"},
      {"measurement": "EC50", "setting": "[12]", "value": "1.34 µM (active)"},
      {"measurement": "EC50", "setting": "[13]", "value": "> 180 µM (inactive)"},
      {"measurement": "EC50", "setting": "[14]", "value": "> 150 µM (inactive)"}
    ]},
    {"smiles": "COc1cccc(/C=N/NC(=O)C(=O)Nc2ccccc2OC(F)(F)C(F)F)c1O", "values": [
      {"measurement": "EC50", "setting": "[11]", "value": "> 160 µM (inactive)"},
      {"measurement": "EC50", "setting": "[20]", "value": "92.8 µM (active)"},
      {"measurement": "EC50", "setting": "[12]", "value": "0.46 µM (active)"},
      {"measurement": "EC50", "setting": "[21]", "value": "> 350 µM (not active)"},
      {"measurement": "EC50", "setting": "[13]", "value": "> 180 µM (inactive)"},
      {"measurement": "AC50", "setting": "[22]", "value": "4.2 µM (active)"},
      {"measurement": "AC50", "setting": "[23]", "value": "2.77 µM (active)"},
      {"measurement": "EC50", "setting": "[14]", "value": "10.6 µM (active)"}
    ]},
    {"smiles": "COc1ccc(/N=C2/C(=O)N3c4c(cccc42)C(C)=CC3(C)C)cc1", "values": [
      {"measurement": "EC50", "setting": "[9]", "value": "> 40 µM (inactive)"},
      {"measurement": "IC50", "setting": "[24]", "value": "> 100 µM (active)"},
      {"measurement": "IC50", "setting": "[10]", "value": "> 40 µM (not active)"}
    ]},
    {"smiles": "Cc1cc(C(C)(C)C)c(O)c(C(C)(C)C)c1", "note": "[BUTYLATED HYDROXYTOLUENE]", "values": [
      {"measurement": "AC50", "setting": "[4]", "value": "11.2 µM (inconclusive)"}
    ]},
    {"smiles": "c1ccc(NNc2ccccc2)cc1", "note": "[HYDRAZOBENZENE]", "values": [
      {"measurement": "AC50", "setting": "[4]", "value": "35.5 µM (inconclusive)"}
    ]}
  ]
}
